In brackets after ≈: the same amount, converted by molar mass. Read-outs that look alike come from different tables or passages of the source.
Columns and labels:
Assay in all cases: Mueller-Hinton agar dilution method (MIC)
Assay type in all cases: cell-based
Serratia marcescens = settings: read-out: Minimal Inhibitory Concentration
Enterobacter aerogenes = settings: Klebsiella aerogenes
Micrococcus luteus = settings: read-out: Minimal Inhibitory Concentration
Excerpt: (§1) The results appear in Tables I, II, and III.

Salmonella sp. = settings: strain SSC-79-57, Table III, read-out: Minimal Inhibitory Concentration
Excerpt: as §1

Escherichia coli = settings: read-out: Minimal Inhibitory Concentration
Enterobacter cloacae = tested on: Enterobacter cloacae
Proteus morganii = settings: Morganella morganii, read-out: Minimal Inhibitory Concentration
Acinetobacter sp. = settings: read-out: Minimal Inhibitory Concentration
Salmonella (arizona) = settings: read-out: Minimal Inhibitory Concentration
Staphylococcus aureus = tested on: Staphylococcus aureus
Proteus rettgeri = settings: Providencia rettgeri, read-out: Minimal Inhibitory Concentration
Enterococcus sp. = settings: for MIC: Enterococcus
Pseudomonas aeruginosa = tested on: Pseudomonas aeruginosa
Klebsiella pneumoniae = settings: for MIC: Klebsiella pneumoniae
Citrobacter sp. = settings: read-out: Minimal Inhibitory Concentration
Providencia stuartti = settings: read-out: Minimal Inhibitory Concentration
Klebsiella oxytoca = settings: read-out: Minimal Inhibitory Concentration
[1] = ATCC25922, strain ATCC 25922, Table III

CO/N=C(\C(=O)N[C@@H]1C(=O)N2C(C(=O)O)=C(CSc3snnc3C)CS[C@H]12)c1csc(N)n1 [Compound Ib(i), 7-β-[α-syn-methoxyimino-α-(2-aminothiazol-4-yl)acetamido]-3-[(1,2,3-thiadiazol-4-methyl-5-ylthio)methyl]-3-cephem-4-carboxylic acid]
MIC (Serratia marcescens; strain QHC-77-2, Table III): 2 µg/mL (≈ 3.79 µM)
MIC (Serratia marcescens; strain TUL-78-15, Table III): 2 µg/mL (≈ 3.79 µM)
MIC (Enterobacter aerogenes; strain STFD-79-14, Table III, read-out: Minimal Inhibitory Concentration): 0.12 µg/mL (≈ 0.227 µM)
MIC (Micrococcus luteus; strain PCI 1001, Table III): ≤ 0.03 µg/mL
MIC (Salmonella sp.): 1 µg/mL (≈ 1.9 µM)
MIC (Escherichia coli; [1]): ≤ 0.03 µg/mL
MIC (Escherichia coli; strain #311, Table III): 0.06 µg/mL (≈ 0.114 µM)
MIC (Escherichia coli; strain ESS 22-31, Table III): ≤ 0.03 µg/mL
MIC (Escherichia coli; strain STFD-79-20, Table III): ≤ 0.03 µg/mL
MIC (Enterobacter cloacae; strain K-79-16, Table III, read-out: Minimal Inhibitory Concentration): 0.25 µg/mL (≈ 0.474 µM)
MIC (Proteus morganii; strain K-79-25, Table III): ≤ 0.03 µg/mL
MIC (Acinetobacter sp.; strain K-77-1, Table III): 4 µg/mL (≈ 7.58 µM)
MIC (Acinetobacter sp.; strain STFD-79-17, Table III): 32 µg/mL (≈ 60.6 µM)
MIC (Salmonella (arizona); strain QHC-77-3, Table III): 0.06 µg/mL (≈ 0.114 µM)
MIC (Staphylococcus aureus; strain FU-79-19-2, Table III, read-out: Minimal Inhibitory Concentration): 0.5 µg/mL (≈ 0.948 µM)
MIC (Staphylococcus aureus; strain SSC-79-18, Table III, read-out: Minimal Inhibitory Concentration): 0.25 µg/mL (≈ 0.474 µM)
MIC (Staphylococcus aureus; strain SSC-80-15, Table III, read-out: Minimal Inhibitory Concentration): 1 µg/mL (≈ 1.9 µM)
MIC (Staphylococcus aureus; strain Smith, Table III, read-out: Minimal Inhibitory Concentration): 0.25 µg/mL (≈ 0.474 µM)
MIC (Proteus rettgeri; strain N-76-1, Table III): ≤ 0.03 µg/mL
MIC (Enterococcus sp.; strain OSU-75-1, Table III, read-out: Minimal Inhibitory Concentration): 8 µg/mL (≈ 15.2 µM)
Minimal Inhibitory Concentration (Enterococcus sp.; strain SM-77-15, Table III): 8 µg/mL
MIC (Pseudomonas aeruginosa; ATCC27853, strain ATCC 27853, Table III, read-out: Minimal Inhibitory Concentration): 64 µg/mL (≈ 121 µM)
MIC (Pseudomonas aeruginosa; strain 12-4-4, Table III, read-out: Minimal Inhibitory Concentration): 64 µg/mL (≈ 121 µM)
MIC (Pseudomonas aeruginosa; strain SSC-78-13, Table III, read-out: Minimal Inhibitory Concentration): 64 µg/mL (≈ 121 µM)
MIC (Klebsiella pneumoniae; strain STFD-79-6, Table III, read-out: Minimal Inhibitory Concentration): ≤ 0.03 µg/mL
Minimal Inhibitory Concentration (Klebsiella pneumoniae; strain AD, Table III): ≤ .03 µg/mL
Minimal Inhibitory Concentration (Klebsiella pneumoniae; strain SSC-78-1, Table III): ≤ .03 µg/mL

CC(=O)OCC1=C(C(=O)O)N2C(=O)[C@@H](NC(=O)Cc3cccs3)[C@H]2SC1 [II]
MIC (Serratia marcescens): > 128 µg/mL
MIC (Enterobacter aerogenes; read-out: Minimal Inhibitory Concentration, strain STFD-79-14, Table I): 128 µg/mL (≈ 323 µM)
MIC (Enterobacter aerogenes; read-out: Minimal Inhibitory Concentration, strain STFD-79-14, Table III): > 128 µg/mL
MIC (Micrococcus luteus): 0.03 µg/mL (≈ 0.0757 µM)
MIC (Salmonella sp.): 64 µg/mL (≈ 161 µM)
MIC (Escherichia coli; [1]): 2 µg/mL (≈ 5.04 µM)
MIC (Escherichia coli; strain #311, Table I): 4 µg/mL (≈ 10.1 µM)
MIC (Escherichia coli; strain #311, Table III): 4 µg/mL (≈ 10.1 µM)
MIC (Escherichia coli; strain ESS 22-31, Table III): ≤ 0.03 µg/mL
MIC (Escherichia coli; strain K-81-14, Table I): 64 µg/mL (≈ 161 µM)
MIC (Escherichia coli; strain STFD-79-20, Table I): 4 µg/mL (≈ 10.1 µM)
MIC (Escherichia coli; strain STFD-79-20, Table III): 2 µg/mL (≈ 5.04 µM)
MIC (Enterobacter cloacae; read-out: Minimal Inhibitory Concentration, strain K-79-16, Table I): > 128 µg/mL
MIC (Enterobacter cloacae; read-out: Minimal Inhibitory Concentration, strain K-79-16, Table III): > 128 µg/mL
MIC (Enterobacter cloacae; read-out: Minimal Inhibitory Concentration, strain K-81-46, Table I): 64 µg/mL (≈ 161 µM)
MIC (Proteus morganii): > 128 µg/mL
MIC (Citrobacter sp.): 1 µg/mL (≈ 2.52 µM)
MIC (Acinetobacter sp.): > 128 µg/mL
MIC (Salmonella (arizona)): 2 µg/mL (≈ 5.04 µM)
MIC (Staphylococcus aureus; read-out: Minimal Inhibitory Concentration, strain FU-79-19-2, Table I): 0.5 µg/mL (≈ 1.26 µM)
MIC (Staphylococcus aureus; read-out: Minimal Inhibitory Concentration, strain FU-79-19-2, Table III): 0.12 µg/mL (≈ 0.303 µM)
MIC (Staphylococcus aureus; read-out: Minimal Inhibitory Concentration, strain SSC-79-18, Table I): 0.25 µg/mL (≈ 0.631 µM)
MIC (Staphylococcus aureus; read-out: Minimal Inhibitory Concentration, strain SSC-79-18, Table III): 0.12 µg/mL (≈ 0.303 µM)
MIC (Staphylococcus aureus; read-out: Minimal Inhibitory Concentration, strain SSC-80-15, Table I): 0.5 µg/mL (≈ 1.26 µM)
MIC (Staphylococcus aureus; read-out: Minimal Inhibitory Concentration, strain SSC-80-15, Table III): 0.5 µg/mL (≈ 1.26 µM)
MIC (Staphylococcus aureus; read-out: Minimal Inhibitory Concentration, strain Smith, Table I): 0.12 µg/mL (≈ 0.303 µM)
MIC (Staphylococcus aureus; read-out: Minimal Inhibitory Concentration, strain Smith, Table III): 0.03 µg/mL (≈ 0.0757 µM)
MIC (Proteus rettgeri): > 128 µg/mL
MIC (Enterococcus sp.; read-out: Minimal Inhibitory Concentration, strain OSU-75-1, Table I): 32 µg/mL (≈ 80.7 µM)
MIC (Enterococcus sp.; read-out: Minimal Inhibitory Concentration, strain OSU-75-1, Table III): 16 µg/mL (≈ 40.4 µM)
MIC (Enterococcus sp.; read-out: Minimal Inhibitory Concentration, strain SM-77-15, Table I): 32 µg/mL (≈ 80.7 µM)
MIC (Enterococcus sp.; read-out: Minimal Inhibitory Concentration, strain SM-77-15, Table III): 16 µg/mL (≈ 40.4 µM)
MIC (Providencia stuartti): > 128 µg/mL
MIC (Pseudomonas aeruginosa; ATCC27853, read-out: Minimal Inhibitory Concentration): > 128 µg/mL
MIC (Pseudomonas aeruginosa; read-out: Minimal Inhibitory Concentration): > 128 µg/mL
MIC (Klebsiella oxytoca): 2 µg/mL (≈ 5.04 µM)
MIC (Klebsiella pneumoniae; read-out: Minimal Inhibitory Concentration, strain AD, Table III): 0.03 µg/mL (≈ 0.0757 µM)
MIC (Klebsiella pneumoniae; read-out: Minimal Inhibitory Concentration, strain SSC-78-1, Table I): 1 µg/mL (≈ 2.52 µM)
MIC (Klebsiella pneumoniae; read-out: Minimal Inhibitory Concentration, strain SSC-78-1, Table III): 1 µg/mL (≈ 2.52 µM)
MIC (Klebsiella pneumoniae; read-out: Minimal Inhibitory Concentration, strain STFD-79-6, Table III): 0.5 µg/mL (≈ 1.26 µM)
MIC (Klebsiella pneumoniae; read-out: Minimal Inhibitory Concentration, strain STFD-79-16, Table I): 1 µg/mL (≈ 2.52 µM)

Reference: patent US4399132A, “7-Beta-[alpha-syn-methoxyimino-alpha-(2-aminothiazol-4-yl)-aceta mido]-3-[(1,2,3-thiadiazol-5-ylthio)methyl]-3-cephem-4-carboxylic acid and C1 -C6 alkyl derivatives thereof” (American Cyanamid Company, priority 1981, dated 1983)
